Where “and” joins values, the source holds several entries; their conditions need not be identical. Equal values may be shown once. Read-outs that look alike come from different tables or passages of the source.
How the values were obtained:
Type in all cases: in vivo, mice
MRI-H-254 tumors = system: MRI-H-254 tumors
Method: Female athymic nude mice (Harlan Sprague Dawley, Madison, Wis.) were utilized for all experiments. Animals were housed in ventilated rack caging with food and water ad libitum. The mice were acclimated for at least 5 days prior to tumor implantation with tumor fragments.
Treatments were initiated on DPI 20.
Tumor size measurements were recorded twice weekly from the treatment initiation until the termination of the study.
(§1) Mean, standard deviation and standard error of the mean were determined for tumor volume for all animal groups at all assessments. Student's t test was performed on tumor volumes at each measurement day, including at the end of the study, to determine whether there were any statistically significant differences between combination treatment groups and single monotherapy treatment groups.

NCI-H460 tumors [1] = details: G2 PM00104 0.9 mg/kg/day IV
Text: (§2) Female athymic nude mice (Harlan Sprague Dawley, Madison, Wis.) were utilized for all experiments. Animals were housed in ventilated rack caging with food and water ad libitum. The mice were acclimated for at least 5 days prior to tumor implantation.
The tumor model used in this study was NCI-H460 cell line which is a human lung cell line obtained from the ATCC (Manassas, Va.). […] Cells from in vitro passage 16 were those implanted SC into study mice.
Treatments were initiated on DPI 8.
(§3) Tumor size measurements were recorded 2-3 times/week from the treatment initiation until the termination of the study.
as §1

NCI-H460 tumors [2] = details: for % Inhibition: PM00104 0.9 mg/kg/day, single agents and combination, r5-r13 = day 9,13,16,21,24,27,30,38,41
Method: as §2
The tumor model used in this study was NCI-H460 cell line which is a human NSCLC cell line obtained from the ATCC (Manassas, Va.). […] Cells from in vitro passage 7 were implanted SC into study mice using a 1 ml syringe with a 13G trocar: 5×10^6 cells/mouse in 0.2 ml 50% Matrigel/50% RPMI medium of NCI-H460 without serum or antibiotics. Bacterial culture was taken on cells used to implant the study.
Treatments were initiated on DPI 9.
as §3, §1

[3] = PM00104 0.90 IV, docetaxel 16 IP, oxaliplatin 8 IP mg/kg/day (G2, G3, G5, G7, G9), DPI 20, 27, 34
[4] = PM00104 0.9 mg/kg/day IV and/or Bevacizumab 5 mg/kg/day IP

SMILES: COc1c(C)cc2c(c1O)[C@@H]1[C@@H]3Cc4c(OC(C)=O)c(C)c5c(c4[C@H](CNC(=O)/C=C/c4cccc(C(F)(F)F)c4)N3[C@@H](O)[C@H](C2)N1C)OCO5 [PM00104]
- % T/C on day 20 (MRI-H-254 tumors; [3]): 100.2%
- % T/C on day 23 (MRI-H-254 tumors; [3]): 109.3%
- % T/C on day 27 (MRI-H-254 tumors; [3]): 71.6%
- % T/C on day 30 (MRI-H-254 tumors; [3]): 65.4%
- % T/C on day 33 (MRI-H-254 tumors; [3]): 54.2%
- % T/C on day 36 (MRI-H-254 tumors; [3]): 50.0%
- % T/C on day 40 (MRI-H-254 tumors; [3]): 36.1%
- % T/C on day 48 (MRI-H-254 tumors; [3]): 26.9%
- % Inhibition (MRI-H-254 tumors; day 20, PM00104 0.9 and docetaxel 8 mg/kg/day): −0.2%
- % Inhibition (MRI-H-254 tumors; day 20, PM00104 0.9 and docetaxel 16 mg/kg/day): −0.2%
- % Inhibition (MRI-H-254 tumors; day 20, PM00104 0.9 and oxaliplatin 4 mg/kg/day): −0.2%
- % Inhibition (MRI-H-254 tumors; day 20, PM00104 0.9 and oxaliplatin 8 mg/kg/day): −0.2%
- % Inhibition (MRI-H-254 tumors; day 23, PM00104 0.9 and docetaxel 8 mg/kg/day): −9.3%
- % Inhibition (MRI-H-254 tumors; day 23, PM00104 0.9 and docetaxel 16 mg/kg/day): −9.3%
- % Inhibition (MRI-H-254 tumors; day 23, PM00104 0.9 and oxaliplatin 4 mg/kg/day): −9.3%
- % Inhibition (MRI-H-254 tumors; day 23, PM00104 0.9 and oxaliplatin 8 mg/kg/day): −9.3%
- % Inhibition (MRI-H-254 tumors; day 27, PM00104 0.9 and docetaxel 8 mg/kg/day): 28.4%
- % Inhibition (MRI-H-254 tumors; day 27, PM00104 0.9 and docetaxel 16 mg/kg/day): 28.4%
- % Inhibition (MRI-H-254 tumors; day 27, PM00104 0.9 and oxaliplatin 4 mg/kg/day): 28.4%
- % Inhibition (MRI-H-254 tumors; day 27, PM00104 0.9 and oxaliplatin 8 mg/kg/day): 28.4%
- % Inhibition (MRI-H-254 tumors; day 30, PM00104 0.9 and docetaxel 8 mg/kg/day): 34.6%
- % Inhibition (MRI-H-254 tumors; day 30, PM00104 0.9 and docetaxel 16 mg/kg/day): 34.6%
- % Inhibition (MRI-H-254 tumors; day 30, PM00104 0.9 and oxaliplatin 4 mg/kg/day): 34.6%
- % Inhibition (MRI-H-254 tumors; day 30, PM00104 0.9 and oxaliplatin 8 mg/kg/day): 34.6%
- % Inhibition (MRI-H-254 tumors; day 33, PM00104 0.9 and docetaxel 8 mg/kg/day): 45.8%
- % Inhibition (MRI-H-254 tumors; day 33, PM00104 0.9 and docetaxel 16 mg/kg/day): 45.8%
- % Inhibition (MRI-H-254 tumors; day 33, PM00104 0.9 and oxaliplatin 4 mg/kg/day): 45.8%
- % Inhibition (MRI-H-254 tumors; day 33, PM00104 0.9 and oxaliplatin 8 mg/kg/day): 45.8%
- % Inhibition (MRI-H-254 tumors; day 36, PM00104 0.9 and docetaxel 8 mg/kg/day): 50.0%
- % Inhibition (MRI-H-254 tumors; day 36, PM00104 0.9 and docetaxel 16 mg/kg/day): 50.0%
- % Inhibition (MRI-H-254 tumors; day 36, PM00104 0.9 and oxaliplatin 4 mg/kg/day): 50.0%
- % Inhibition (MRI-H-254 tumors; day 36, PM00104 0.9 and oxaliplatin 8 mg/kg/day): 50.0%
- % Inhibition (MRI-H-254 tumors; day 40, PM00104 0.9 and docetaxel 8 mg/kg/day): 63.9%
- % Inhibition (MRI-H-254 tumors; day 40, PM00104 0.9 and docetaxel 16 mg/kg/day): 63.9%
- % Inhibition (MRI-H-254 tumors; day 40, PM00104 0.9 and oxaliplatin 4 mg/kg/day): 63.9%
- % Inhibition (MRI-H-254 tumors; day 40, PM00104 0.9 and oxaliplatin 8 mg/kg/day): 63.9%
- % Inhibition (MRI-H-254 tumors; day 48, PM00104 0.9 and docetaxel 8 mg/kg/day): 73.1%
- % Inhibition (MRI-H-254 tumors; day 48, PM00104 0.9 and docetaxel 16 mg/kg/day): 73.1%
- % Inhibition (MRI-H-254 tumors; day 48, PM00104 0.9 and oxaliplatin 4 mg/kg/day): 73.1%
- % Inhibition (MRI-H-254 tumors; day 48, PM00104 0.9 and oxaliplatin 8 mg/kg/day): 73.1%
- % T/C on day 8 (NCI-H460 tumors [1]): 101.5%
- % T/C on day 10 (NCI-H460 tumors [1]): 86.5%
- % T/C on day 13 (NCI-H460 tumors [1]): 48.5%
- % T/C on day 16 (NCI-H460 tumors [1]): 49.0%
- % T/C on day 20 (NCI-H460 tumors [1]): 47.2%
- % T/C on day 23 (NCI-H460 tumors [1]): 63.0%
- % T/C on day 28 (NCI-H460 tumors [1]): 61.9%
- % T/C on day 31 (NCI-H460 tumors [1]): 81.7%
- % Inhibition (NCI-H460 tumors [1]; day 8): −1.5%
- % Inhibition (NCI-H460 tumors [1]; day 10): 13.5%
- % Inhibition (NCI-H460 tumors [1]; day 13): 51.5%
- % Inhibition (NCI-H460 tumors [1]; day 16): 51.0%
- % Inhibition (NCI-H460 tumors [1]; day 20): 52.8%
- % Inhibition (NCI-H460 tumors [1]; day 23): 37.0%
- % Inhibition (NCI-H460 tumors [1]; day 28): 38.1%
- % Inhibition (NCI-H460 tumors [1]; day 31): 18.3%
- % T/C on day 9 (NCI-H460 tumors [2]; [4]): 96.3%
- % T/C on day 13 (NCI-H460 tumors [2]; [4]): 97.8%
- % T/C on day 16 (NCI-H460 tumors [2]; [4]): 75.9%
- % T/C on day 21 (NCI-H460 tumors [2]; [4]): 73.2%
- % T/C on day 24 (NCI-H460 tumors [2]; [4]): 66.8%
- % T/C on day 27 (NCI-H460 tumors [2]; [4]): 43.8%
- % T/C on day 30 (NCI-H460 tumors [2]; [4]): 45.1%
- % T/C on day 38 (NCI-H460 tumors [2]; [4]): 125.1%
- % T/C on day 41 (NCI-H460 tumors [2]; [4]): 132.5%
- % Inhibition (NCI-H460 tumors [2]; bevacizumab 5 mg/kg/day): 24.1% and 33.2%
- % Inhibition (NCI-H460 tumors [2]; temsirolimus 10 mg/kg/day): 24.1% and 33.2%
- % Inhibition (NCI-H460 tumors [2]; temsirolimus 20 mg/kg/day): 24.1% and 33.2%

Reference: patent US20110070232A1, “Combination Therapy with an Antitumor Alkaloid” (Pharma Mar, S.A., priority 2008, published 2011)
